Some results are limits rather than exact numbers.

In experiment [1] the target is Serine/threonine-protein kinase B-raf (Homo sapiens, UniProt P15056, V600E). Briefly: Inhibition of full length B-Raf V600E mutant.
A short description of experiment [2]: Inhibition of basal ERK phosphorylation in human MALME-3M cells. The format is cell-based.

Serine/threonine-protein kinase B-raf, sequence (P15056 2-766 V600E limits assumed): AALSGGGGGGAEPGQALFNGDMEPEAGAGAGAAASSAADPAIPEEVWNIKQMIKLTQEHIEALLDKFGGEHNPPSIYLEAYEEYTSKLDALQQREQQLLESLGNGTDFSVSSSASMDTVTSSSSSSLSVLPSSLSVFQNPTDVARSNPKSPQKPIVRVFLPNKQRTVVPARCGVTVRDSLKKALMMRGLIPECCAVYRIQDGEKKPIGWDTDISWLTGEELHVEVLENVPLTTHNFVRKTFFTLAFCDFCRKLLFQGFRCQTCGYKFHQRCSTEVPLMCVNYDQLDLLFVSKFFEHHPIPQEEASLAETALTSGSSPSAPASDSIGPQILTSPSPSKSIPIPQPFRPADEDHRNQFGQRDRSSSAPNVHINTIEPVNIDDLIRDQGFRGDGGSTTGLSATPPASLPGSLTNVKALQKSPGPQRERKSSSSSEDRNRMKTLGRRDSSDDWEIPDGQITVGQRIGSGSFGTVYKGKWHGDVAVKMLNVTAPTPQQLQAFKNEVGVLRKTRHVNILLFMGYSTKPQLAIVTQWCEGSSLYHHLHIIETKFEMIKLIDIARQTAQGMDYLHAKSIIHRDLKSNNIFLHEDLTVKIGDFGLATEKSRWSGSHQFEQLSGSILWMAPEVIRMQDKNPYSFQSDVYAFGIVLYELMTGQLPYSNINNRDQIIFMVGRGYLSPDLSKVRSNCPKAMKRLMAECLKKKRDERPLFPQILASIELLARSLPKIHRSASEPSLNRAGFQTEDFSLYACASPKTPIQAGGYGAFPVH

For orientation: IC50 means the concentration that inhibits the measured activity by half. Turning to `CCCS(=O)(=O)Nc1ccc(F)c(C(=O)Nc2cnc3[nH]nc(I)c3c2)c1F`, the IC50 in experiment [1] was determined as 1.8 nM; in experiment [2], 36 nM.

Turning to `CCCS(=O)(=O)Nc1ccc(Cl)c(C(=O)Nc2cnc3[nH]nc(OC)c3c2)c1`, the IC50 in experiment [1] came to 61 nM; in experiment [2], 250 nM.

Regarding `COc1n[nH]c2ncc(NC(=O)c3c(F)ccc(NS(=O)(=O)CC4CC4)c3F)cc12`, the IC50 in experiment [1] is 17 nM; in experiment [2], 31 nM.

Consider `CCCS(=O)(=O)Nc1ccc(F)c(C(=O)Nc2cnc3[nH]nc(OC)c3c2)c1OC`, for which the IC50 came out at 110 nM in experiment [1] and 180 nM in experiment [2].

For the compound `CCCS(=O)(=O)Nc1ccc(Cl)c(C(=O)Nc2cnc3[nH]ccc3c2)c1Cl`, the results for the IC50 in experiment [1] and in experiment [2] were 8.3 nM and 206 nM, respectively.

`CCCS(=O)(=O)Nc1ccc(F)c(C(=O)Nc2cnc3[nH]ccc3c2)c1C` yielded a half-inhibitory concentration (IC50) in experiment [1] of 680 nM.

As for `O=C(Nc1cnc2[nH]ccc2c1)c1c(F)ccc(NS(=O)(=O)CC2CC2)c1F`, the IC50 came to 29 nM in experiment [1] and 230 nM in experiment [2].

`COc1n[nH]c2ncc(NC(=O)c3c(F)ccc(NS(=O)(=O)Cc4ccccc4)c3F)cc12`: the figures for the IC50 in experiment [1] and in experiment [2] were 190 nM and 830 nM, respectively.

Turning to `CCCS(=O)(=O)Nc1ccc(F)c(C(=O)Nc2cnc3[nH]ncc3c2)c1F`, the 50% inhibitory concentration (IC50) in experiment [2] was determined as 62 nM.

As for `COc1n[nH]c2ncc(NC(=O)c3c(F)ccc(NS(=O)(=O)N(C)C)c3F)cc12`, the IC50 was 18 nM in experiment [1] and 63 nM in experiment [2].

On to `COc1n[nH]c2ncc(NC(=O)c3c(F)ccc(NS(=O)(=O)CCCF)c3F)cc12`, for which the IC50 was found to be 1.3 nM in experiment [1] and 13 nM in experiment [2].

With `CCCS(=O)(=O)Nc1ccc(Cl)c(C(=O)Nc2cnc3[nH]nc(OC)c3c2)c1Cl`, the IC50 in experiment [1] stood at 1.4 nM; in experiment [2], 40 nM.

Regarding `CCCS(=O)(=O)Nc1ccc(C)c(C(=O)Nc2cnc3[nH]ccc3c2)c1F`, the IC50 in experiment [1] was 170 nM; in experiment [2], 1400 nM.

As for `COc1n[nH]c2ncc(NC(=O)c3c(F)ccc(NS(=O)(=O)c4ccccc4F)c3F)cc12`, the IC50 was 1.8 nM in experiment [1] and 9.1 nM in experiment [2].

In turn, `CCCS(=O)(=O)Nc1ccc(F)c(C(=O)Nc2cnc3[nH]nc(OC)c3c2)c1C(F)(F)F` gave an IC50 in experiment [1] of 530 nM.

With `COc1n[nH]c2ncc(NC(=O)c3c(F)ccc(NS(=O)(=O)c4cccs4)c3F)cc12`, the IC50 in experiment [1] was determined as 0.2 nM; in experiment [2], 30 nM.

As for `O=C(Nc1cnc2[nH]ccc2c1)c1c(F)ccc(NS(=O)(=O)C2CC2)c1F`, the IC50 in experiment [1] stood at 99 nM; in experiment [2], 710 nM.

Compound `CCCS(=O)(=O)Nc1ccc(F)c(C(=O)Nc2cnc3[nH]cc(Br)c3c2)c1F` had an IC50 in experiment [2] of 39 nM.

As for `COc1n[nH]c2ncc(NC(=O)c3c(F)ccc(NS(=O)(=O)c4cccnc4)c3F)cc12`, the results for the IC50 in experiment [1] and in experiment [2] were 0.5 nM and 83 nM, respectively.

The compound `COc1n[nH]c2ncc(NC(=O)c3c(F)ccc(NS(=O)(=O)c4cn(C)cn4)c3F)cc12` yielded an IC50 in experiment [2] greater than 10000 nM.

Turning to `CCCS(=O)(=O)Nc1ccc(F)c(C(=O)Nc2cnc3[nH]nc(OCC(F)(F)F)c3c2)c1F`, the values for the IC50 in experiment [1] and in experiment [2] were 5.3 nM and 28 nM, respectively.

Regarding `CCCS(=O)(=O)Nc1ccc(F)c(C(=O)Nc2cnc3[nH]nc(Br)c3c2)c1F`, in experiment [2], inhibition was half-maximal at 44 nM (IC50).

In the case of `CCNS(=O)(=O)Nc1ccc(F)c(C(=O)Nc2cnc3[nH]nc(OC)c3c2)c1F`, the results for the IC50 in experiment [1] and in experiment [2] were 18 nM and 180 nM, respectively.

As to `CCCS(=O)(=O)Nc1cc(F)cc(C(=O)Nc2cnc3[nH]ccc3c2)c1F`, the IC50 in experiment [1] worked out at 76 nM; in experiment [2], 400 nM.

Turning to `COc1n[nH]c2ncc(NC(=O)c3c(F)ccc(NS(=O)(=O)NCC(F)F)c3F)cc12`, the IC50 in experiment [1] worked out at 13 nM; in experiment [2], 500 nM.

`CCCS(=O)(=O)Nc1ccc(Cl)c(C(=O)Nc2cnc3[nH]nc(OC)c3c2)c1F` returned an IC50 in experiment [2] of 20 nM.

For the compound `CN(C)S(=O)(=O)Nc1ccc(F)c(C(=O)Nc2cnc3[nH]ccc3c2)c1F`, the IC50 in experiment [1] was 200 nM; in experiment [2] it was 260 nM.

Consider `CCCCS(=O)(=O)Nc1ccc(F)c(C(=O)Nc2cnc3[nH]ccc3c2)c1F`, for which the IC50 in experiment [1] turned out to be 40 nM; in experiment [2], 120 nM.

Take `COc1n[nH]c2ncc(NC(=O)c3c(F)ccc(NS(=O)(=O)c4cc(F)ccc4F)c3F)cc12`: the figures for the IC50 in experiment [1] and in experiment [2] were 1 nM and 20 nM, respectively.

Consider `COc1n[nH]c2ncc(NC(=O)c3c(F)ccc(NS(=O)(=O)c4ccc(F)cc4)c3F)cc12`, for which the IC50 stood at 46 nM in experiment [1] and 340 nM in experiment [2].

As to `COc1n[nH]c2ncc(NC(=O)c3c(F)ccc(NS(=O)(=O)c4ccco4)c3F)cc12`, the IC50 in experiment [1] amounted to 0.7 nM; in experiment [2], 66 nM.

In the case of `CCCS(=O)(=O)Nc1ccc(F)c(C(=O)Nc2cnc3[nH]nc(O[C@@H]4CCOC4)c3c2)c1F`, the IC50 is 6.9 nM in experiment [1] and 62 nM in experiment [2].

Take `CCCS(=O)(=O)Nc1ccc(OC)c(C(=O)Nc2cnc3[nH]nc(OC)c3c2)c1F`: the IC50 in experiment [1] was 2600 nM.

In experiment [1], `CCCS(=O)(=O)Nc1ccc(F)c(C(=O)Nc2cnc3[nH]ccc3c2)c1` registered an IC50 of 210 nM.

Turning to `CCCS(=O)(=O)Nc1cc(F)c(F)c(C(=O)Nc2cnc3[nH]ccc3c2)c1F`, the values for the IC50 in experiment [1] and in experiment [2] were 19 nM and 410 nM, respectively.

Consider `COc1n[nH]c2ncc(NC(=O)c3c(F)ccc(NS(=O)(=O)NC(C)C)c3F)cc12`, for which the values for the IC50 in experiment [1] and in experiment [2] were 110 nM and 630 nM, respectively.

As to `O=C(Nc1cnc2[nH]ccc2c1)c1c(F)ccc(NS(=O)(=O)CC(F)(F)F)c1F`, the IC50 in experiment [1] was determined as 38 nM; in experiment [2] it was 2600 nM.

Turning to `CCCS(=O)(=O)Nc1ccc(F)c(C(=O)Nc2cnc3[nH]ccc3c2)c1F`, in experiment [2], the IC50 is 94 nM.

On to `O=C(Nc1cnc2[nH]ccc2c1)c1c(F)ccc(NS(=O)(=O)CCCF)c1F`, for which the IC50 in experiment [1] worked out at 19 nM; in experiment [2], 75 nM.

`CCCS(=O)(=O)Nc1ccc(F)c(C(=O)Nc2cnc3[nH]cc(CC)c3c2)c1F`: the IC50 in experiment [1] was found to be 19 nM; in experiment [2] it was 290 nM.

With `CCCS(=O)(=O)Nc1ccc(Cl)c(C(=O)Nc2cnc3[nH]ccc3c2)c1`, the IC50 in experiment [1] was found to be 88 nM; in experiment [2] it was 2100 nM.

Take `CCN(C)S(=O)(=O)Nc1ccc(F)c(C(=O)Nc2cnc3[nH]ccc3c2)c1F`: the IC50 in experiment [1] is 400 nM; in experiment [2] it was 340 nM.

Consider `CCCS(=O)(=O)Nc1ccc(F)c(C(=O)Nc2cnc3[nH]cc(C(F)(F)F)c3c2)c1F`, for which the IC50 in experiment [1] was 6.2 nM; in experiment [2] it was 230 nM.

With `CCCS(=O)(=O)Nc1cc(F)cc(C(=O)Nc2cnc3[nH]nc(OC)c3c2)c1F`, the values for the IC50 in experiment [1] and in experiment [2] were 7.5 nM and 80 nM, respectively.

As for `CCCS(=O)(=O)Nc1cccc(C(=O)Nc2cnc3[nH]ccc3c2)c1F`, the concentration for half-maximal inhibition (IC50) turned out to be 87 nM in experiment [1] and 290 nM in experiment [2].

With `O=C(Nc1cnc2[nH]ccc2c1)c1c(F)ccc(NS(=O)(=O)N2CCCC2)c1F`, the figures for the IC50 in experiment [1] and in experiment [2] were 120 nM and 170 nM, respectively.

Take `CCCS(=O)(=O)Nc1ccc(F)c(C(=O)Nc2cnc3[nH]nc(OCC4CCC4)c3c2)c1F`: the values for the IC50 in experiment [1] and in experiment [2] were 3.5 nM and 76 nM, respectively.

As to `CCCS(=O)(=O)Nc1ccc(Cl)c(C(=O)Nc2cnc3[nH]ccc3c2)c1F`, the IC50 in experiment [1] came out at 17 nM; in experiment [2], 190 nM.

For `COc1n[nH]c2ncc(NC(=O)c3c(F)ccc(NS(=O)(=O)c4ccccn4)c3F)cc12`, the IC50 in experiment [1] was found to be 16 nM; in experiment [2] it was 280 nM.

For `CC(C)CS(=O)(=O)Nc1ccc(F)c(C(=O)Nc2cnc3[nH]ccc3c2)c1F`, the IC50 in experiment [1] turned out to be 140 nM; in experiment [2] it was 200 nM.

In the case of `O=C(Nc1cnc2[nH]ccc2c1)c1c(F)ccc(NS(=O)(=O)CCC(F)(F)F)c1F`, the IC50 in experiment [1] was found to be 33 nM; in experiment [2] it was 270 nM.

As for `CCCS(=O)(=O)Nc1ccc(F)c(C(=O)Nc2cnc3[nH]nc(OCC)c3c2)c1F`, the IC50 was found to be 2.4 nM in experiment [1] and 12 nM in experiment [2].

As for `CCCS(=O)(=O)Nc1ccc(F)c(C(=O)Nc2cnc3[nH]nc(OC)c3c2)c1`, the IC50 in experiment [1] turned out to be 150 nM; in experiment [2], 350 nM.

`CCCS(=O)(=O)Nc1cc(F)c(F)c(C(=O)Nc2cnc3[nH]nc(OC)c3c2)c1F`: the IC50 was 2.3 nM in experiment [1] and 100 nM in experiment [2].

In experiment [2], `COc1n[nH]c2ncc(NC(=O)c3c(F)ccc(NS(=O)(=O)c4ccccc4)c3F)cc12` came in with an IC50 of 17 nM.

For the compound `CCS(=O)(=O)Nc1ccc(F)c(C(=O)Nc2cnc3[nH]nc(OC)c3c2)c1F`, the IC50 was 25 nM in experiment [1] and 62 nM in experiment [2].

In the case of `CCCS(=O)(=O)Nc1ccc(F)c(C(=O)Nc2cnc3[nH]cc(C)c3c2)c1F`, the IC50 in experiment [1] was 16 nM; in experiment [2], 62 nM.

On to `CCCS(=O)(=O)Nc1cccc(C(=O)Nc2cnc3[nH]nc(OC)c3c2)c1F`, for which the IC50 in experiment [1] is 13 nM; in experiment [2], 38 nM.

For `CCCS(=O)(=O)Nc1ccc(F)c(C(=O)Nc2cnc3[nH]nc(C(F)(F)F)c3c2)c1F`, the figures for the IC50 in experiment [1] and in experiment [2] were 5.8 nM and 280 nM, respectively.

Turning to `COc1n[nH]c2ncc(NC(=O)c3c(F)ccc(NS(=O)(=O)C4CC4)c3F)cc12`, the IC50 in experiment [1] was found to be 63 nM; in experiment [2], 170 nM.

Regarding `COc1n[nH]c2ncc(NC(=O)c3c(F)ccc(NS(=O)(=O)CC(C)C)c3F)cc12`, the IC50 in experiment [1] turned out to be 4.5 nM; in experiment [2] it was 11 nM.

For `CCCS(=O)(=O)Nc1ccc(F)c(C(=O)Nc2cnc3[nH]nc(OCC4COC4)c3c2)c1F`, the IC50 in experiment [1] is 4.2 nM; in experiment [2], 43 nM.

For `CCCS(=O)(=O)Nc1ccc(F)c(C(=O)Nc2cnc3[nH]nc(C)c3c2)c1F`, in experiment [2], it took 86 nM to reach half-maximal inhibition (IC50).

Take `CCCS(=O)(=O)Nc1ccc(F)c(C(=O)Nc2cnc3[nH]cc(I)c3c2)c1F`: the IC50 came out at 2.2 nM in experiment [1] and 60 nM in experiment [2].

With `CCN(C)S(=O)(=O)Nc1ccc(F)c(C(=O)Nc2cnc3[nH]nc(OC)c3c2)c1F`, the IC50 in experiment [1] worked out at 29 nM; in experiment [2], 28 nM.

In the case of `CCCS(=O)(=O)Nc1ccc(F)c(C(=O)Nc2cnc3[nH]nc(CC)c3c2)c1F`, the 50% inhibitory concentration (IC50) in experiment [1] turned out to be 9.2 nM; in experiment [2], 84 nM.

(Values after ChEMBL document CHEMBL1821716, “Pyrazolopyridine inhibitors of B-RafV600E. Part 2: structure-activity relationships” (Bioorg Med Chem Lett, 2011).)
